Data on 1 compound can be found in patent US11814382B2 (FUJIAN COSUNTER PHARMACEUTICAL CO., LTD., priority 2018, dated 2023).

The test system of data set [1] is CCl4-induced mouse liver fibrosis model. In words: In vivo efficacy test in CCl4-induced mouse liver fibrosis model. Further details: species or system Male C57BL/6 mice. The conditions noted are these: oral gavage, day 1 to day 28 of CCl4 modeling, vs. model group (FIG. 14). As to the method: Male C57BL/6 mice, 22-27 grams in weight, purchased from Shanghai Lingchang Biotechnology Co., Ltd.
Mice were transferred to the experimental area after one week of quarantine and adaptation. Animals were randomly divided into groups according to body weight and housed in cages at 5 mice per cage. 20% CCl4 solution with CCl4: Olive oil=1:4 was prepared by dissolving CCl4 in olive oil at a dose of 0.5 μl/g in mice. The mice of model group were orally three times a week for 4 weeks for molding, and the mice of normal control group was administrated only with the same volume of olive oil orally. The subject compounds were administered orally by oral gavage in a volume of 10 ml/kg per animal. The Day 1 of CCl4 modeling was initiated while dosing was initiated until day 28. At the end of the experiment, animal liver samples were collected for histopathological analysis.

The subject of data set [2] is MCD-induced mouse NASH model. In words: In vivo efficacy test in MCD-induced mouse NASH model. On the set-up: species or system C57BL/6 male mice. Conditions: dosing from week 5 of 8 weeks MCD feed, vs. model group (FIG. 13). The procedure: SPF grade C57BL/6 male mice, 22-25 grams in weight.
MCD: methionine/choline deficient feed.
Liver Propylene Analytical Reagents: hematoxylin dyeing liquid, eosin dyeing liquid and Picro sirius dyeing liquid.
After the animals were adapted for one week in the facility, the normal control group was still fed with the normal feed, and other animals were fed with MCD feed instead. The drinking water didn't change and the feed was replaced once every 48 hours. Beginning at week 5, the remaining groups, except the normal control and model groups, were administrated with subject compound. The Experiment lasted for a total of 8 weeks. At the end of the experiment, animal liver samples were collected for histopathological analysis.

Data set [3] is described as follows: Solid stability test of crystal form A (high temperature, high humidity, strong light). The data set is classed as physicochemical. The text has this:
The samples were respectively placed in a high-temperature, high-humidity and strong-light storage container. The samples were taken at 5 and 10 days after placing, and the test results were compared with the initial test results at 0 days.

For `Cc1cc(F)c(C(=O)Nc2cccc(-c3nnc4n3CCCC4)n2)cc1-n1cnc(C2CC2)c1` [Crystal form A], the “Effect on liver fibrosis (liver histopathology)” value in data set [1] (3 mg/Kg BID), in data set [1] (30 mg/Kg BID), in data set [2] (6 mg/Kg BID) and in data set [2] (60 mg/Kg BID) was “significant effect on improving liver fibrosis” throughout. Further, the Crystal form entry in data set [3] (High Humidity (25° C./Relative Humidity 90%, Open), Day 5) is on record as “Crystal form A”; in data set [3] (High Humidity (25° C./Relative Humidity 90%, Open), Day 10), “Crystal form A”; in data set [3] (High Temperature (60° C., Open), Day 5) it was “Crystal form A”; in data set [3] (High Temperature (60° C., Open), Day 10), “Crystal form A”; in data set [3] (Strong light (5000 lx, closed), Day 5) it was “Crystal form A”; in data set [3] (Strong light (5000 lx, closed), Day 10), “Crystal form A”. Besides, the Crystal form entry in data set [3] (initial, Day 0) is “Crystal form A”. Further, the “Solid stability (conclusion)” value in data set [3] (high temperature, high humidity and strong light) is on record as “good stability”.
